# Test results taken from US9487502B2, “Chemical compounds” (Syngenta Limited, priority 2013, dated 2016).
# Legend:
# Format in all cases: in vivo
# Abutilon theophrasti [1] = test: Pre-emergence herbicidal activity, ABUTH; set-up: key: 5=total damage to plant; 0=no damage to plant; conditions: 1000 g/Ha, sprayed pre-emergence, evaluated after 13 days, scale 0-5
# Procedure: (§1) Seeds of a variety of test species were sown in standard soil in pots. After cultivation for one day (pre-emergence) under controlled conditions in a glasshouse (at 24/16° C., day/night; 14 hours light; 65% humidity), the plants were sprayed with an aqueous spray solution derived from the formulation of the technical active ingredient in acetone/water (50:50) solution containing 0.5% Tween 20 (polyoxyethelyene sorbitan monolaurate, CAS RN 9005-64-5). The test plants were then grown in a glasshouse under controlled conditions (at 24/16° C., day/night; 14 hours light; 65% humidity) and watered twice daily. After 13 days, the test was evaluated (5=total damage to plant; 0=no damage to plant).
# Amaranthus retroflexus [2] = test: Pre-emergence herbicidal activity, AMARE; set-up: key: 5=total damage to plant; 0=no damage to plant; conditions: 1000 g/Ha, sprayed pre-emergence, evaluated after 13 days, scale 0-5
# Procedure: as §1
# Setaria faberi [3] = test: Pre-emergence herbicidal activity, SETFA; set-up: key: 5=total damage to plant; 0=no damage to plant; conditions: 1000 g/Ha, sprayed pre-emergence, evaluated after 13 days, scale 0-5
# Procedure: as §1
# Echinochloa crus-galli [4] = test: Pre-emergence herbicidal activity, ECHCG; set-up: key: 5=total damage to plant; 0=no damage to plant; conditions: 1000 g/Ha, sprayed pre-emergence, evaluated after 13 days, scale 0-5
# Procedure: as §1
# Alopecurus myosuroides [5] = test: Pre-emergence herbicidal activity, ALOMY; set-up: key: 5=total damage to plant; 0=no damage to plant; conditions: 1000 g/Ha, sprayed pre-emergence, evaluated after 13 days, scale 0-5
# Procedure: as §1
# Zea mays [6] = test: Pre-emergence herbicidal activity, ZEAMX; conditions: 1000 g/Ha, sprayed pre-emergence, evaluated after 13 days, scale 0-5
# Procedure: as §1
# Setaria faberi [7] = test: Post-emergence herbicidal activity, SETFA; set-up: key: 5=total damage to plant; 0=no damage to plant; conditions: 1000 g/Ha, sprayed post-emergence (8 days cultivation), evaluated after 13 days, scale 0-5
# Procedure: (§2) Seeds of a variety of test species were sown in standard soil in pots. After 8 days cultivation (post-emergence) under controlled conditions in a glasshouse (at 24/16° C., day/night; 14 hours light; 65% humidity), the plants were sprayed with an aqueous spray solution derived from the formulation of the technical active ingredient in acetone/water (50:50) solution containing 0.5% Tween 20 (polyoxyethelyene sorbitan monolaurate, CAS RN 9005-64-5). The test plants were then grown in a glasshouse under controlled conditions (at 24/16° C., day/night; 14 hours light; 65% humidity) and watered twice daily. After 13 days, the test was evaluated (5=total damage to plant; 0=no damage to plant).
# Abutilon theophrasti [8] = test: Post-emergence herbicidal activity, ABUTH; set-up: key: 5=total damage to plant; 0=no damage to plant; conditions: 1000 g/Ha, sprayed post-emergence (8 days cultivation), evaluated after 13 days, scale 0-5
# Procedure: as §2
# Amaranthus retroflexus [9] = test: Post-emergence herbicidal activity, AMARE; set-up: key: 5=total damage to plant; 0=no damage to plant; conditions: 1000 g/Ha, sprayed post-emergence (8 days cultivation), evaluated after 13 days, scale 0-5
# Procedure: as §2
# Alopecurus myosuroides [10] = test: Post-emergence herbicidal activity, ALOMY; set-up: key: 5=total damage to plant; 0=no damage to plant; conditions: 1000 g/Ha, sprayed post-emergence (8 days cultivation), evaluated after 13 days, scale 0-5
# Procedure: as §2
# Echinochloa crus-galli [11] = test: Post-emergence herbicidal activity, ECHCG; set-up: key: 5=total damage to plant; 0=no damage to plant; conditions: 1000 g/Ha, sprayed post-emergence (8 days cultivation), evaluated after 13 days, scale 0-5
# Procedure: as §2
# Zea mays [12] = test: Post-emergence herbicidal activity, ZEAMX; set-up: key: 5=total damage to plant; 0=no damage to plant; conditions: 1000 g/Ha, sprayed post-emergence (8 days cultivation), evaluated after 13 days, scale 0-5
# Procedure: as §2
Compound,"ABUTH damage score, application pre-emergence (Abutilon theophrasti [1])","AMARE damage score, application pre-emergence (Amaranthus retroflexus [2])","SETFA damage score, application pre-emergence (Setaria faberi [3])","ECHCG damage score, application pre-emergence (Echinochloa crus-galli [4])","ALOMY damage score, application pre-emergence (Alopecurus myosuroides [5])","ZEAMX damage score, application pre-emergence (Zea mays [6])","SETFA damage score, application post-emergence (Setaria faberi [7])","ABUTH damage score, application post-emergence (Abutilon theophrasti [8])","AMARE damage score, application post-emergence (Amaranthus retroflexus [9])","ALOMY damage score, application post-emergence (Alopecurus myosuroides [10])","ECHCG damage score, application post-emergence (Echinochloa crus-galli [11])","ZEAMX damage score, application post-emergence (Zea mays [12])"
CCCOC1C(O)N(c2cc(C(C)(C)C)ncn2)C(=O)N1C (stereo not drawn) [Example A10],4,5,4,2,4,2,4,5,5,4,4,2
COC1C(O)N(c2cc(C(C)(C)C)ncn2)C(=O)N1C (stereo not drawn) [Example A11],4,5,4,3,3,1,5,5,5,4,4,1
CCC1C(O)N(c2cc(C(C)(C)C)ncn2)C(=O)N1C (stereo not drawn) [Example A16],5,5,5,4,2,2,5,5,5,3,5,4
CCCC1C(O)N(c2cc(C(C)(C)C)ncn2)C(=O)N1C (stereo not drawn) [Example A17],4,5,5,5,4,3,5,5,5,3,5,4
CCOC1C(O)N(c2cc(C(C)(C)C#N)ncn2)C(=O)N1C (stereo not drawn) [Example A18],5,5,4,3,1,2,5,5,5,4,5,5
CCC1C(O)N(c2cc(C(C)(C)C)ncn2)C(=O)N1OC (stereo not drawn) [Example A19],3,5,5,5,4,3,2,5,5,3,3,5
CC1C(O)N(c2cc(C(C)(C)F)ncn2)C(=O)N1C (stereo not drawn) [Example A20],5,5,5,4,3,4,5,5,5,4,5,4
CON1C(=O)N(c2cc(C(C)(C)F)ncn2)C(O)C1C (stereo not drawn) [Example A21],5,5,5,4,3,3,5,5,5,5,5,4
CN1CC(O)N(c2cc(C(C)(C)F)ncn2)C1=O (stereo not drawn) [Example A22],5,5,5,5,4,4,5,5,5,5,5,5
CON1CC(O)N(c2cc(C(C)(C)C)ncn2)C1=O (stereo not drawn) [Example A23],5,5,2,4,1,1,5,5,4,1,4,4
CC1C(O)N(c2cc(C(C)(C)C#N)ncn2)C(=O)N1C (stereo not drawn) [Example A24],5,5,5,5,4,2,5,5,5,4,5,5
CON1C(=O)N(c2cc(C(C)(C)C#N)ncn2)C(O)C1C (stereo not drawn) [Example A25],5,5,5,5,4,4,5,5,5,5,5,5
CCN1C(=O)N(c2cc(C(C)(C)C)ncn2)C(O)C1OC (stereo not drawn) [Example A26],2,1,0,0,0,1,2,1,0,1,0,1
